Experimental data from ChEMBL document CHEMBL1201862, “PubChem BioAssay data set” (2004).
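Where inhibition never reached the appropriate level, the endpoint shown equals the highest concentration tested. Otherwise, values were interpolated linearly from a five-concentration, 48-hour dose response in 96-well plates. GI50: concentration for 50% inhibition of growth.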 Calls of active or inactive are those of the source. No stated cut-off is given here; in the data, active = GI50 up to about 1.1 µM and inactive = higher.

Key:
Experiment in all cases: NCI-60 cell line screen, 48 h
[1] = tested on: 786-0
[2] = tested on: COLO 205
[3] = tested on: NCI-H460
[4] = tested on: OVCAR-8
[5] = tested on: RPMI-8226
[6] = tested on: SF-539
[7] = tested on: SK-MEL-2
[8] = tested on: TK-10
[9] = tested on: UACC-257
[10] = tested on: DU-145
[11] = tested on: HCT-116
[12] = tested on: MCF7
[13] = tested on: MDA-MB-435
[14] = tested on: NCI/ADR-RES
[15] = tested on: RXF 393
[16] = tested on: SF-295
[17] = tested on: SK-OV-3
[18] = tested on: NCI-H522

Measured: GI50

Oc1cc(-c2ccc[nH]2)nc2cc3c(cc12)OCO3
inactive: [1] 40.6 µM | [2] 18.5 µM | [3] 25.2 µM | [4] 46.7 µM | [5] 43 µM | [6] 29.6 µM | [7] 48.3 µM | [8] 62.8 µM | [9] 64.7 µM

CN1c2ccccc2C(=O)NC12CCN(CC1COc3ccccc3O1)CC2 (centres undefined)
inactive: [1] 69.7 µM | [2] 48.3 µM | [10] 61 µM | [11] 37.3 µM | [12] 31.8 µM | [13] 33.4 µM | [3] 21.3 µM | [14] 31.6 µM | [4] 60.5 µM | [5] 30.5 µM | [15] > 100 µM | [16] 57.7 µM | [6] 36.4 µM | [17] > 100 µM | [8] 44.8 µM | [9] 22 µM

Cc1cc(N(CCC#N)S(=O)(=O)c2ccccc2)ccc1/C=C1N=C(/C=C/c2ccccc2)OC\1=O
inactive: [1] > 100 µM | [2] > 100 µM | [11] > 100 µM | [3] > 100 µM | [18] 67.9 µM | [4] > 100 µM | [5] > 100 µM | [15] > 100 µM | [16] > 100 µM | [6] > 100 µM | [7] > 100 µM | [17] > 100 µM | [8] > 100 µM | [9] > 100 µM

O=C(NC12CC3CC(CC(C3)C1)C2)C(=O)c1c[nH]c2ccc([N+](=O)[O-])cc12
inactive: [1] 16.9 µM | [2] 24.5 µM | [11] 18.7 µM | [3] 13.5 µM | [18] 25.2 µM | [4] 19 µM | [5] > 83 µM | [15] 21.1 µM | [16] 6.18 µM | [6] 46.1 µM | [7] > 59.8 µM | [17] 76.6 µM | [8] 24.9 µM | [9] 85.5 µM

COc1cc(-c2cccs2)sc1-c1cccs1
inactive: [1] 39.3 µM | [2] 13.2 µM | [11] 28.6 µM | [3] 26 µM | [18] 31 µM | [4] 97.1 µM | [5] 52.4 µM | [15] 21.8 µM | [16] 23.3 µM | [6] 73.8 µM | [7] 31.5 µM | [17] 31 µM | [8] 41.6 µM | [9] 39.7 µM

COc1ccc(/C=C2\C(=O)N(C(=O)c3ccc(NC(C)=O)cc3)N=C2C)cc1OC
inactive: [1] > 100 µM | [2] > 100 µM | [11] > 100 µM | [3] > 100 µM | [18] > 100 µM | [4] > 100 µM | [5] > 100 µM | [16] > 100 µM | [6] > 100 µM | [7] > 100 µM | [8] > 100 µM | [9] > 100 µM

O=C(Nc1nnn[nH]1)c1nc(O)cc(-c2ccccc2)n1
inactive: [1] > 100 µM | [2] > 100 µM | [11] > 100 µM | [3] > 100 µM | [18] > 100 µM | [4] > 100 µM | [5] > 100 µM | [16] > 100 µM | [7] > 100 µM | [17] > 100 µM | [8] > 100 µM | [9] > 100 µM

CCOC(=O)C1=C(C)N(NC(N)=O)C2(N)N(NC(N)=O)C(C)=C(C(=O)OCC)C12C(=O)OCC (centres undefined)
inactive: [1] > 100 µM | [11] > 100 µM | [3] > 100 µM | [18] > 100 µM | [4] > 100 µM | [5] > 100 µM | [15] > 100 µM | [16] > 100 µM | [6] > 100 µM | [7] > 100 µM | [17] > 100 µM | [9] > 100 µM

O=[N+]([O-])c1nccn1COCCBr
inactive: [1] > 100 µM | [2] > 10 µM | [11] > 100 µM | [3] > 100 µM | [18] > 100 µM | [4] > 100 µM | [5] > 100 µM | [16] > 100 µM | [6] > 100 µM | [7] > 100 µM | [17] > 100 µM | [8] > 100 µM | [9] > 100 µM

CC(=O)NNc1nc(C)c(C(=O)NNC(=O)C(=O)Nc2ccc(C)cc2[N+](=O)[O-])s1
inactive: [1] > 100 µM | [2] > 100 µM | [11] > 100 µM | [3] > 100 µM | [18] 20.7 µM | [4] > 100 µM | [5] > 100 µM | [15] > 100 µM | [16] > 100 µM | [6] > 100 µM | [7] > 100 µM | [17] > 100 µM | [8] > 100 µM | [9] > 100 µM

Nc1ncc(CN2CCCC2)c(-c2ccccc2O)n1
inactive: [1] > 750 µM | [2] > 750 µM | [11] > 750 µM | [12] > 100 µM | [3] > 750 µM | [18] > 750 µM | [14] > 100 µM | [4] > 750 µM | [5] > 750 µM | [15] > 750 µM | [16] > 750 µM | [6] > 750 µM | [7] > 100 µM | [17] > 750 µM | [8] > 750 µM | [9] > 750 µM

CCOC(=O)C1(Cc2ccccc2)CCCCCN1 (centres undefined)
inactive: [1] > 100 µM | [2] > 100 µM | [3] > 100 µM | [4] > 100 µM | [15] > 100 µM | [16] > 100 µM | [17] > 100 µM | [8] > 100 µM

C=CCCCCCCCCC(=O)NS(=O)(=O)c1ccccc1
inactive: [1] > 100 µM | [2] > 100 µM | [11] 93.8 µM | [3] > 100 µM | [18] 55.3 µM | [4] > 100 µM | [5] 35.8 µM | [15] > 100 µM | [16] > 100 µM | [6] > 100 µM | [7] > 100 µM | [17] > 100 µM | [8] > 100 µM | [9] > 100 µM

CC(C)c1ccccc1NC(=O)/C(Cl)=C1/Sc2ccccc2NC1=O
inactive: [1] 30.5 µM | [2] 21.4 µM | [11] 28.8 µM | [3] 34.5 µM | [18] 17.9 µM | [4] 43.4 µM | [5] 20.9 µM | [15] 13.3 µM | [6] 21.9 µM | [7] 15.7 µM | [17] 18.4 µM | [8] 71.9 µM

COc1ccc(C=O)c([N+](=O)[O-])c1
inactive: [1] 66.2 µM | [2] 53.3 µM | [11] 4.09 µM | [3] 37.5 µM | [18] > 100 µM | [4] 31.6 µM | [5] 23.1 µM | [15] > 100 µM | [16] 21 µM | [6] 20.4 µM | [7] 35.2 µM | [17] > 100 µM | [8] 87.7 µM | [9] 37.7 µM

CCOC(=O)C1S/C(=N/c2ccc(Cl)cc2C)N=C1C (centres undefined)
inactive: [1] 15.9 µM | [2] 17.1 µM | [11] 15.1 µM | [3] 22 µM | [18] 13.3 µM | [4] 28.1 µM | [15] 15.3 µM | [16] 23.8 µM | [6] 17.6 µM | [7] 16.4 µM | [8] 24.7 µM | [9] 22.2 µM

Nc1nc(N)c2ncn(CCCC(c3ccccc3)P(=O)(O)O)c2n1 (centres undefined)
inactive: [1] > 100 µM | [2] > 100 µM | [11] > 100 µM | [3] > 100 µM | [18] > 100 µM | [4] > 100 µM | [5] > 100 µM | [16] > 100 µM | [6] > 100 µM | [7] > 100 µM | [17] > 100 µM | [8] > 100 µM | [9] > 100 µM

C[C@@H]1[C@H](c2ccccc2)O[B-]2(c3ccc(Br)cc3)OC(=O)C[N+]12C (some centres undefined)
inactive: [1] > 100 µM | [2] > 100 µM | [11] > 100 µM | [3] > 100 µM | [18] > 100 µM | [4] > 100 µM | [5] > 100 µM | [15] 26.5 µM | [16] > 100 µM | [6] > 100 µM | [7] > 100 µM | [17] > 100 µM | [9] > 100 µM

COc1ccc(C2Oc3c(cc(O)c(OC)c3C)[C@@H]2C)cc1OC (some centres undefined)
inactive: [1] > 100 µM | [2] > 100 µM | [11] > 100 µM | [3] > 100 µM | [18] 34.4 µM | [4] > 100 µM | [5] 4.44 µM | [15] 27.7 µM | [16] > 100 µM | [6] > 100 µM | [7] > 100 µM | [17] > 100 µM | [8] > 100 µM | [9] 45 µM

C/C(=N\NC(=O)C[n+]1ccccc1)c1sc(-c2nc(C)c(/C(C)=N/NC(=O)C[n+]3ccccc3)s2)nc1C
inactive: [1] > 100 µM | [2] > 100 µM | [11] 68.5 µM | [3] > 100 µM | [4] > 100 µM | [5] 43.9 µM | [15] > 100 µM | [16] > 100 µM | [6] > 100 µM | [7] > 100 µM | [17] > 100 µM | [8] > 100 µM | [9] > 100 µM
